Literature values as cited in patent US20110086911A1, “NOVEL BISMUTH(III) NSAID COMPOUNDS AND METHODS FOR THEIR USE” (Monash University, priority 2009, published 2011).

Tested on: H. pylori strains B128, 251 and 26695
Details: comparison values for substances not listed among those tested

In the case of `CNC(=C[N+](=O)[O-])NCCSCc1ccc(CN(C)C)o1.O=C([O-])CC(O)(CC(=O)[O-])C(=O)[O-].[Bi+3]` [RBC, ranitidine bismuth citrate], the MIC value is given as 8 µg/mL.

In the case of colloidal bismuth subcitrate [CBS], the MIC value is given as at least 12.5 µg/mL.
